“Also recorded” adds a separate entry of the source. Like-named read-outs stand apart in the source and are kept apart here.

One assay concerns spontaneous activity. The assay is described as follows: Spontaneous activity in mice. The class given is in vivo. Particulars: vehicle or a dose of test compound, FIG. 2b, FIG. 3b.
Assay [1] concerns the target T1, 5HT2C receptors (Homo sapiens, UniProt P28335).
T1 sequence (P28335 33-458): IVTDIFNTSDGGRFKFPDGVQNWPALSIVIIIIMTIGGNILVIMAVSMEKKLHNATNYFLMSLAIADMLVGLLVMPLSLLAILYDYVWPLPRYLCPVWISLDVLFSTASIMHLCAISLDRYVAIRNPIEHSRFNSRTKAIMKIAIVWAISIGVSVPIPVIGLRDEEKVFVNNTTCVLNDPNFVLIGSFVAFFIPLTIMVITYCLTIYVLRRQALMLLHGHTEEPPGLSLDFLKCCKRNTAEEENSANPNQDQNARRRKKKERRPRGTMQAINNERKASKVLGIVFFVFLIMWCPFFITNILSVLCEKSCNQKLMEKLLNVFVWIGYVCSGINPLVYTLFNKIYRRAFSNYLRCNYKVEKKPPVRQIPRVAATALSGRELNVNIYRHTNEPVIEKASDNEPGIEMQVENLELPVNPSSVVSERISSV
Briefly: Human 5-HT2C functional assay in CHO-K1 cells (calcium flux, FLIPR). Format: cell-based. Details: expressed in transfected cells; host or cells: CHO-K1 cells. The following applies: for Emax: percentage relative to the effect of serotonin. In short, it runs like this: (§1)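 Frozen CHO-K1 cells over-expressing receptor, serum-starved overnight, loaded with Ca4 dye plus 2.5 mM probenecid for 60 min at room temperature. FLIPR fluorescence (ex 480/em 530 nm, 25° C) recorded 3 min after compound addition; 6-point 1:10 series from 10 μM, 0.2% DMSO. Response normalized to serotonin, 4-parameter fit gives EC50; Emax as % of serotonin.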

Another assay addresses T2, 5HT2B receptors (Homo sapiens, UniProt P41595).
T2 construct: expressed in transfected cells; host or cells: CHO-K1 cells
Briefly: Human 5-HT2B functional assay in CHO-K1 cells (calcium flux, FLIPR). Format: cell-based. In short, it runs like this:
as §1
A general note: A change in cytosolic calcium serves as a functional read-out for many receptors and channels.

The test system of assay [2] is AMP-induced hyperactivity. Briefly: d-Amphetamine-induced hyperlocomotion in mice. The class given is in vivo. An excerpt:
(§2) (v) Assessment of Effects on Psychostimulant-Induced Hyperlocomotion in Mice
In both humans and experimental animals amphetamine profoundly affects motor activity, sensorimotor function, sleep, attention, aggressive and sexual behaviors, learning and memory, operant behaviors, appetite and food intake. In addition, amphetamine induces psychotic reactions in normal individuals and exacerbates symptoms of schizophrenia in patients. In experimental animals several distinct behaviors are considered to be correlates of amphetamine psychosis. For example, amphetamine-induced hyperactivity in rodents is believed to model the psychotic symptoms of schizophrenia. Reversal of these behaviors is used to predict potential antipsychotic activity of drugs in pre-clinical studies.
(§3) Male NMRI mice (5-week old, Janvier, France) or C57BL/6J mice (6-week old, Janvier, France) were group housed and allowed ad-libitum access to food and water. A 12 hour light/dark cycle was imposed with lights-on period between 0530 and 1730 hours. All testing occurred between 700 and 1300 hours. All procedures were approved by Abbott Institutional Animal Care and Use Committee (USA) or Animal Welfare Officer (Germany) and were conducted in accordance with the National Institutes of Health Guide for Care and Use of Laboratory Animals guidelines and applicable national laws in the facilities accredited by the Association for the Assessment and Accreditation of Laboratory Animal Care.
On the day of experiment, animals were brought from the animal facility into the experimental room and were allowed to acclimatize for at least 30 minutes. Animals were then placed in the test cages for a habituation period of 60 minutes. The animals were then injected ip with the test compound and returned to the test cage. 30 Minutes later, the mice were injected with d-amphetamine (2.0 mg/kg, AMP, Sigma, #A5880, sc) or phencyclidine (2.0 mg/kg, PCP, Sigma, #P3029, sc), and returned to the test cages for 90 minutes. […] The analyzed data were: fine movements, ambulations and total movements (fine+ambulations). […]

Assay [3] deals with T1, 5HT2C receptors. Briefly: Human 5-HT2C functional assay in 1321N1 cells (intracellular calcium, FLIPR). The class given is cell-based. The arrangement: expressed in transfected cells; host or cells: 1321N1 cells. The following applies: for EC50: 1321N1 cells stably transfected, maximum calcium response, read-out: EC50 (μM), 5-HT2c Agonist Activity; for Emax: 1321N1 cells, percentage relative to the effect of serotonin, read-out: Emax (%), 5-HT2c Agonist Activity. An outline of the steps: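 Intracellular calcium in 1321N1 cells stably transfected with human 5-HT2C, serum-starved overnight, Fluo4 AM-loaded with 1% probenecid. Compounds at 10^−10 to 10^−5 M final, alone or with 10^−9 M serotonin; peak FLIPR response. EC50 from four-parameter logistic fit; Emax as % of serotonin effect.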

The target of assay [4] is T3, human serotonin 5-HT2c receptor (Homo sapiens, UniProt P28335).
T3 construct: expressed in transfected cells; host or cells: CHO cells (membrane homogenate)
T3 sequence (P28335 33-458): T1 sequence (P28335 33-458)
The assay is described as follows: Human 5-HT2C receptor radioligand binding assay (agonist site, [125I](±)DOI). Particulars: membranes of transfected CHO cells, 0.2 nM [125I](±)DOI, 15 minutes at 37° C. An outline of the steps: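 Affinity for the agonist site measured by radioligand binding in transfected CHO cells expressing the human receptor, using [125I](±)DOI.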

For assay [5], the system named is PCP-induced hyperactivity. The assay is described as follows: Phencyclidine (PCP)-induced hyperlocomotion in mice. The class given is in vivo. Particulars: test compound ip 30 minutes before phencyclidine 2.0 mg/kg sc, FIG. 4. As for the experimental part:
as §2
In humans, phencyclidine (PCP) is known to produce a syndrome of behavioral effects which have many characteristics in common with schizophrenia. Therefore, antagonism of PCP effects might be evidence for antipsychotic efficacy of a compound.
as §3
On the day of experiment, animals were brought from the animal facility into the experimental room and were allowed to acclimatize for at least 30 minutes. Animals were then placed in the test cages for a habituation period of 60 minutes. […] The analyzed data were: fine movements, ambulations and total movements (fine+ambulations). […]

Where [6] appears, read: CHO-K1 cells over-expressing 5HT2C, calcium flux, read-out: EC50 (μM), 5-HT2c Agonist Activity.
Where [7] appears, read: CHO-K1 cells, read-out: Emax (%), 5-HT2c Agonist Activity.
[8] abbreviates: CHO-K1 cells over-expressing 5HT2B, calcium flux, read-out: EC50 (μM), 5-HT2B Agonist Activity.

T2 sequence (P41595 whole entry): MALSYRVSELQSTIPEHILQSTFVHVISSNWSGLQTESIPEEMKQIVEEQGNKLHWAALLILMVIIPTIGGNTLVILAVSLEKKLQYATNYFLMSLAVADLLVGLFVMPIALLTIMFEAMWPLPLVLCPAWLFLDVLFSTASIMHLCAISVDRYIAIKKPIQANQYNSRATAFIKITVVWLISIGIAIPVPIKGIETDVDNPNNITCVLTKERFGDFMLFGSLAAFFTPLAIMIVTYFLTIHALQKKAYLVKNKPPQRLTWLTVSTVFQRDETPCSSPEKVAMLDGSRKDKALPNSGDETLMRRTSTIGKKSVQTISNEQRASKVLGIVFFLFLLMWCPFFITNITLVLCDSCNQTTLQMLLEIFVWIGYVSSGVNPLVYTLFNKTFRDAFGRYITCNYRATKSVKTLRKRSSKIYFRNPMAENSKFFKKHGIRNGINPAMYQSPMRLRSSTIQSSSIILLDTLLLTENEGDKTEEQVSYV

As usually defined, the EC50 is the midpoint of the concentration-response curve. In general, Emax refers to the maximal effect, on the per cent scale that the assay sets. In the case of `CCOc1ccc2c(c1)N1CCNC[C@@H]1CC(=O)N2` [Example 181, (4aS)-10-ethoxy-1,2,3,4,4a,5-hexahydropyrazino[1,2-a][1,5]benzodiazepin-6(7H)-one], the “spontaneous activity (total activity counts)” value in the assay with spontaneous activity is “no effects; also recorded: No change in spontaneous activity regardless of dose”. Besides, the EC50 at 5HT2C receptors [1] (setting [6]) is 0.02 µM; on 5HT2B receptors (setting [8]), more than 10 µM. For the same compound, the maximal effect (Emax) at 5HT2C receptors [1] (setting [7]) was more than 120%. Also, the AMP-induced hyperactivity entry in assay [2] (1.0 and 3.0 mg/kg ip before d-amphetamine 2.0 mg/kg sc, FIG. 2a) is “attenuated AMP-induced hyperactivity significantly and in a dose dependent manner; also recorded: concentration-dependent effects of Example 181 attenuating the affect of d-amphetamine”.

In the case of `c1ccc2c(c1)OCC[C@H]1CNCCN21` [Example 169, (4aS)-2,3,4,4a,5,6-hexahydro-1H-pyrazino[2,1-d][1,5]benzoxazepine], in the assay on spontaneous activity, the “spontaneous activity (total activity counts)” value is “no effects; also recorded: No change in spontaneous activity regardless of dose”. For the same compound, the concentration giving a half-maximal response (EC50) at 5HT2C receptors [1] was 0.001 µM; on 5HT2B receptors, more than 10 µM. Moreover, the Emax at 5HT2C receptors [1] (CHO-K1, read-out: Emax (%), 5-HT2c Agonist Activity, CHO-K1 cells) is more than 120%. Moreover, in assay [2] (10 and 30 mg/kg ip before d-amphetamine 2.0 mg/kg sc, FIG. 3a), the AMP-induced hyperactivity entry was “attenuated AMP-induced hyperactivity significantly and in a dose dependent manner; also recorded: concentration-dependent effects of Example 169 attenuating the affect of d-amphetamine”.

The term Ki denotes the equilibrium dissociation constant of an inhibitor or competing ligand from its target. A lower Ki goes with higher affinity. On to `O=C1C[C@H]2CNCCN2c2cc(CCc3ccccc3)ccc2N1` [Example 42, (4aS)-10-(2-phenylethyl)-1,2,3,4,4a,5-hexahydropyrazino[1,2-a][1,5]benzodiazepin-6(7H)-one], for which the EC50 at 5HT2C receptors [3] was determined as 0.0011 µM; on 5HT2C receptors [1] (setting [6]), 0.0004 µM; at 5HT2B receptors (setting [8]) it was 5 µM. The maximal response (Emax) on 5HT2C receptors [3] is 95%; at 5HT2C receptors [1] (setting [7]) it was more than 120%; on 5HT2B receptors (CHO-K1 cells, percentage relative to the effect of serotonin, read-out: Emax (%), 5-HT2B Agonist Activity), 55%. Besides, the AMP-induced hyperactivity result in assay [2] (test compound ip 30 minutes before d-amphetamine 2.0 mg/kg sc, FIG. 1) was “attenuated AMP-induced hyperactivity significantly and in a dose dependent manner; also recorded: concentration-dependent effects of Example 42 attenuating the affect of d-amphetamine”. For the same compound, affinity in assay [4] was put at a Ki of 0.00071 µM.

In the case of `O=C1C[C@H]2CNCCN2c2ccccc2N1` [Example 2, (4aS)-1,2,3,4,4a,5-hexahydropyrazino[1,2-a][1,5]benzodiazepin-6(7H)-one], the PCP-induced hyperactivity result in assay [5] was “attenuated PCP-induced hyperactivity significantly and in a dose dependent manner; also recorded: concentration-dependent effects of Example 2 attenuating the affect of phencyclidine (PCP)”. In addition, at 5HT2C receptors [3], the 50% effective concentration (EC50) came out at 0.0192 µM and the Emax stood at 90%. Also, the Ki in assay [4] was 0.016 µM.
